Key:
Type in all cases: in vivo
[1] = tested on: Echinochloa crus-galli (ECHCG); test: Post-emergence herbicidal activity, ECHCG; conditions: % visual injury compared to treatment control, 7 days after treatment
Procedure: (§1) Selected compounds of the invention were screened at 100 PPM against Amaranthus retroflexus (AMARE), Echinochloa crus-galli (ECHCG), Kochia scoparia (KCHSC), and Setaria italica (SETIT).
(§2) Accordingly, PPO susceptible weed seeds were sown in 5″×5″ pots by quadrant containing Miracle-Gro potting mix (Scotts Miracle-Gro Company, Marysville, OH, USA) and grown in a Conviron growth chamber with appropriate growth conditions (temperature of 26/22° C. with photoperiod 16/8 h light day/night and light intensity of 300 μmol m^−2s^−1 supplemented by LED lamps). Relative humidity in the growth chamber was maintained at around 65%. Plants were grown until 2-4 leaf stage and thinned to 5-8 plants per quadrant per species.
(§3) Compounds were formulated in 25% Acetone, 1% Crop oil concentrate (COC-Agridex), 0.1% Tween-20, and 2.5% Ammonium sulphate (AMS). Three replicate pots were treated with each compound. Treatment consisting of the above formulation excluding active compound was applied as a treatment control (TC). Plants were treated with the test compound solution in a laboratory spray chamber fitted with 8003 flat fan nozzles calibrated to deliver 187-200 L ha^−1 at 269 kPa. Plants were placed back in the growth chamber and evaluated for % visual injury compared to TC 7 days after treatment (DAT). The data presented in Table 3 indicate a percentage control, where 100% control indicates complete inhibition of growth.

Setaria italica (SETIT) = test: Post-emergence herbicidal activity, SETIT; conditions: % visual injury compared to treatment control, 7 days after treatment
Procedure: as §1, §2, §3

Kochia scoparia (KCHSC) = test: Post-emergence herbicidal activity, KCHSC; conditions: % visual injury compared to treatment control, 7 days after treatment
Procedure: as §1, §2, §3

[2] = tested on: Amaranthus retroflexus (AMARE); test: Post-emergence herbicidal activity, AMARE; conditions: % visual injury compared to treatment control, 7 days after treatment
Procedure: as §1, §2, §3

[3] = tested on: Amaranthus retroflexus (AMARE); test: Pre-emergence herbicidal activity, AMARE; conditions: % growth and germination inhibition compared to treatment control, 7 days after treatment
Procedure: Selected compounds of the invention were screened at 200 PPM against Amaranthus retroflexus (AMARE).
Accordingly, PPO susceptible weed seeds were planted in 5″×5″ pots by quadrant containing custom field soil mix (Sandy loam with 4.7% OM, pH 7.0) and covered with a fine layer of the same soil. Compounds were formulated in 25% Acetone, 1% Crop oil concentrate (COC-Agridex), 0.1% Tween-20, and 2.5% Ammonium sulphate (AMS). Three replicate pots were treated with each compound. Treatment consisting of the above formulation excluding active compound was applied as a treatment control (TC). Pots were treated with the test compound solution in a laboratory spray chamber fitted with 8003 flat fan nozzles calibrated to deliver 187-200 L ha-1 at 269 kPa. Compound was incorporated into the soil by simulating rainfall equivalent to 0.2 mm using the same track sprayer. Subsequently, pots were irrigated from the bottom until assessed for % growth and germination inhibition. Pots were placed back in the growth chamber and evaluated for % growth and germination inhibition compared to TC 7 days after treatment (DAT). Growth conditions are similar to the ones mentioned in POST emergence assay.
The data presented in Table 4 indicate a percentage control, where 100% control indicates complete inhibition of growth and germination.

SMILES | Post-emergence (100 ppm) ECHCG, percentage control [1] [%] | Post-emergence (100 ppm) SETIT, percentage control (Setaria italica (SETIT)) [%] | Post-emergence (100 ppm) KCHSC, percentage control (Kochia scoparia (KCHSC)) [%] | Post-emergence (100 ppm) AMARE, percentage control [2] [%] | AMARE pre-emergence (200 ppm), percentage control [3] [%]
COC(=O)CCNC(=O)[C@@H](C)Sc1cc(-c2c(F)c(F)c(F)c(F)c2F)c(F)cc1Cl (single isomer, unassigned) [Compound 6] | 10 | 8 | 12 | 100 | 
C[C@H](Sc1cc(-c2c(F)c(F)c(F)c(F)c2F)c(F)cc1Cl)C(=O)NCCC(=O)O [Compound 7, (S)-3-(2-((4-chloro-2′,3′,4′,5′,6,6′-hexafluoro-[1,1′-biphenyl]-3-yl)thio)propanamido)propanoic acid] | 37 | 28 | 20 | 100 | 
C[C@@H](Sc1cc(-c2c(F)c(F)c(F)c(F)c2F)c(F)cc1Cl)C(=O)NCCC(=O)O [Compound 8, (R)-3-(2-((4-chloro-2′,3′,4′,5′,6,6′-hexafluoro-[1,1′-biphenyl]-3-yl)thio)propanamido)propanoic acid] | 28 | 23 | 23 | 100 | 
CN(C)C(=O)NS(=O)(=O)c1cc(-c2c(F)c(F)c(F)c(F)c2F)c(F)cc1Cl [Compound 16, 4-chloro-N-(dimethylcarbamoyl)-2′,3′,4′,5′,6,6′-hexafluoro-[1,1′-biphenyl]-3-sulfonamide] | 95 | 43 | 8 | 33 | 100
CC(=O)NS(=O)(=O)c1cc(-c2c(F)c(F)c(F)c(F)c2F)c(F)cc1Cl [Compound 17, N-((4-chloro-2′,3′,4′,5′,6,6′-hexafluoro-[1,1′-biphenyl]-3-yl)sulfonyl)acetamide] | 100 | 100 | 13 | 88 | 100
CCC(=O)NS(=O)(=O)c1cc(-c2c(F)c(F)c(F)c(F)c2F)c(F)cc1Cl [Compound 18, N-((4-chloro-2′,3′,4′,5′,6,6′-hexafluoro-[1,1′-biphenyl]-3-yl)sulfonyl)propionamide] | 100 | 100 | 23 | 100 | 100
CCC(=O)NS(=O)(=O)c1cc(-c2c(F)cc(F)c(F)c2F)c(F)cc1Cl [Compound 26, N-((4-chloro-2′,3′,4′,6,6′-pentafluoro-[1,1′-biphenyl]-3-yl)sulfonyl)propionamide] | 100 | 100 | 15 | 100 | 100
